How the values were obtained:
[1] = Stability study of gemcabene calcium salt forms (XRPD form, HPLC/CAD purity); type: physicochemical
Protocol: The stability studies were carried out using storage conditions at a) 40° C. and 75% relative humidity (RH), b) at 80° C. and c) at ambient temperature (approximately 22° C.). After 7 days and 14 days, the samples were removed from the relevant storage conditions and initially analyzed by XRPD to identify any form changes. The samples were then analyzed by HPLC/CAD (high-performance liquid chromatography equipped with a charged aerosol detector) for purity, with all solid purity values given on a w/w % basis.

[2] = Aqueous solubility of gemcabene calcium salt forms over 24 hours (HPLC concentration, XRPD form); type: physicochemical; conditions: slurry in water, approximately 25° C.
Protocol: To each vial, approximately 3 mL to 4 mL water were added and the samples were mixed at ambient temperature (approximately 25° C.) for approximately 24 hours. […] From each vial, samples of the slurries were taken after 1, 4, and 24 hours, which were separated by centrifugation. The solids were separated by centrifugation and analyzed by XRPD for solid form and by HPLC for concentration.

For `CC(C)(CCCCOCCCCC(C)(C)C(=O)[O-])C(=O)[O-].[Ca+2]` [amorphous gemcabene calcium salt], the “change in form (XRPD)” value ([1]; 2-week study, 40° C./75% RH, 80° C. and ambient) was “No change in the form”, the “purity (HPLC/CAD) compared to the starting form” value ([1]; after 2 weeks storage, all 3 storage conditions) was “drop in purity” and the “change in polymorphic form during the test period (XRPD)” value ([2]; 24 hours) was “conversion to a new polymorph, gemcabene calcium salt hydrate Crystal Form 6”. The “change in concentration (HPLC) during the experiment” value ([2]; sampled 1, 4, 24 hours) was “initial increase in concentration after 4 hours followed by a slight decrease in the concentration after 24 hours”.
